Data on four compounds can be found in patent publication US12029738B2, “Antiproliferative compounds and methods of use thereof” (Celgene Corporation, priority 2017, dated 2024).

pIC50: −log10 of the molar value. Where “and” joins values, the source holds several entries; their conditions need not be identical. Identical values can stand only once. Like-named read-outs stand apart in the source and are kept apart here.

The pIC50 is −log10 of the IC50, conventionally taken in molar units. In general, inhibition refers to how much of the control response was suppressed.

The target in assay [1] is T1, dopamine D2S receptor (Homo sapiens, UniProt P14416).
T1 construct: host or cells: HEK-293 cells (membrane homogenates)
T1 sequence (P14416 1-414 isoform P14416-2): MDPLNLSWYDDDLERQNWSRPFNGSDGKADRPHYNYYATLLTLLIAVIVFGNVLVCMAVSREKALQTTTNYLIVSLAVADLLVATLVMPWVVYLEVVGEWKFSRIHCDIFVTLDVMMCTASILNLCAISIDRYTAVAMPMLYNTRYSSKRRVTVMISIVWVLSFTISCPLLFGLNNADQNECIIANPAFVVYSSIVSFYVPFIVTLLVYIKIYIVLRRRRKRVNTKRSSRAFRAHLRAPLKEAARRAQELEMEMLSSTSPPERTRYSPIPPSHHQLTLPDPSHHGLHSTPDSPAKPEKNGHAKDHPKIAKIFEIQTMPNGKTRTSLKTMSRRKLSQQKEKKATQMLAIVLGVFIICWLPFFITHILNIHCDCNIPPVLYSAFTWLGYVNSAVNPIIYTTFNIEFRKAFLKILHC
Briefly: Dopamine D2S receptor radioligand binding (HEK-293). The note with it: for inhibition at 10 µM: read-out: Dopamine D2S % Inhibition (10 μM). The method, then:
α1 Adrenergic and Dopamine D2 Receptors. Methods: Binding and functional assays for α1 adrenergic and dopamine D2 receptors were performed by Eurofins Cerep according to their methods.
Dopamine D2 Receptor. Binding at 10 μM. The binding assay evaluated the affinity of test articles for the dopamine D2 receptor in transfected human embryonic kidney (HEK)-293 cells. For determining the binding in the D2S receptor assay, test article was incubated with 0.3 nM [^3H] methylspiperone or 1 nM [^3H] 7-hydroxy-2-N,N-dipropylaminotetralin (7-OH-DPAT). [3H] Methylspiperone at 0.3 nM also was used as control ligand in the D2L binding assay. Cell membrane homogenates were incubated in duplicate at room temperature for 60 minutes with ligand in the absence or presence of test articles at 10 μM. After the incubation period, samples were filtered through glass fiber filters, the filters dried and then counted for radioactivity using a scintillation counter. Results are expressed as mean percent inhibition of control radioligand binding.
Binding IC50. To determine the binding IC50 in the D2 receptor assays, HEK-293 were tested as described above but with varying concentrations of test article. Compound A was tested at 0.01-30 μM in the D2S radioligand binding assay. […] Compound 1 was assayed at 0.03-100 μM in both the D2S and D2L assays, while Compound 2 was tested at 0.03-100 μM in the D2S assay and 0.01-100 μM in the D2L assays. The IC50 was defined as the concentration causing a half-maximum inhibition of control specific binding.

Assay [2] deals with NCI-H929-1051 (lenalidomide-resistant). Description: Cell proliferation assay (CTG, 120 h). The format is cell-based, human. The settings on record: for pIC50: Homo sapiens, 120 h. The method, then:
Cell Culture Materials: Human multiple myeloma cell lines were purchased from the vendors and cultured at 37° C. with 5% CO2 in the media as indicated in Table 1. Lenalidomide and pomalidomide resistant cell lines were obtained by methods as generally described previously (Lopez-Girona et al Leukemia 2012; 26(11): 2335). All cell lines were kept in log phase, and cell density and viability were monitored by trypan blue exclusion using the Vi-cell XR cell viability analyzer (Beckman Coulter, Brea, CA).
Preparation of Solutions of Test Article: Compounds were plated into black 384-well plates (Corning Inc.) to a final DMSO volume of 0.1% assuming a maximal volume of 50 μL. A 10-point dose response starting at 10 μM with a 1:3 dilution was printed in duplicate by acoustic dispense using the EDC ATS-100 platform. Alternatively, the 10-point dose response starting at 10 μM with a 1:10 dilution, or starting at 100 nM with a 1:3 dilutions were used.
Cell Proliferation Assays: The effect of compounds on the proliferation/viability of the hematological cell lines (Table 1), was assessed after 120 h incubation using CTG (Promega), according to manufacturer's instructions. Hematological cell lines were dispensed into compound plates by a Multidrop Combi Reagent Dispenser (Thermo Scientific, Waltham, MA) at a concentration of 0.1×10^6 cells per mL in a 50 μL total volume. At 120 h, 25 μL per well of CTG was dispensed by a Multidrop Combi Reagent Dispenser and adenosine triphosphate (ATP) release by viable cells was measured as relative luminescence units after 30 minutes using the Envision platform.
Results. […] The MM cell lines selected for this study were lines sensitive and resistant to lenalidomide and/or pomalidomide (Table 1), two agents used in the clinic to treat myeloma patients. Proliferation was assessed using the CellTitre-Glo© assay. Results for cultures incubated with the compounds were normalized to results for control cultures for each cell line. The IC50 for inhibition of cell growth by the compounds was determined for each cell line using ActivityBase software.
Combination with Dexamethasone. The activity of pomalidomide with that of Compound 2 alone or in combination with dexamethasone was evaluated across a panel of MM cell lines. […] Table 3 summarizes the potency (IC50) of the single agent and dexamethasone combination studies performed in the H929-1051 cell line. […] Each IC50 is the average from at least 3 independent experiments. Proliferation was monitored on Day 5 using Cell Titer-Glo.

Assay [3] deals with ARH-77. Briefly: Flow cytometry proliferation/apoptosis assay (120 h). The note with it: for pIC50: Homo sapiens, read-out: Antiproliferative Activity (Flow Cytometry) IC50; for induced apoptosis AUC (area under the dose response curve): scale 0-10000. The format is cell-based, human. The method, then:
(§1) Methods. […] Using 5 mM stocks, compounds were pre-spotted into the appropriate wells of 96-well plates using a Hewlett-Packard D300 Digital Dispenser. Cells were added to 96-well plates using a Multidrop Combi Reagent Dispenser. After 5 days of treatment, flow cytometric analysis was used to determine the number of cells that were alive, dead, or apoptotic. After 5 days of treatment, cells were incubated with annexin V to stain exposed phosphatidylserine, an apoptotic cell-surface marker, and the vital dye 7-AAD, which is excluded from cells with intact cell membranes, and analyzed by flow cytometry (Attune®, Thermo Fisher). Analysis was then performed to determine the number of live cells (annexin V and 7-AAD double negative staining cells) and the percentage of apoptotic cells (annexin V positive cells) for each condition, relative to the DMSO control treated, was calculated. All described values were normalized to DMSO-only treated cells. All proliferation and apoptosis induction curves were processed and graphed as percent of control using XLFit (IDBS, Alameda, CA) and GraphPad Prism 7.03 (GraphPad Software, La Jolla, CA). The live cell count for every concentration was normalized to the DMSO control (considered as 100%) in Microsoft Excel to generate the proliferation curves. […] Similarly, for apoptosis analysis, the percentage of drug-induced apoptosis was calculated for all doses by combining both “early” (annexin V positive and 7-AAD negative) and “late” apoptosis (annexin V and 7-AAD positive) values and subtracting background values (cell treated with vehicle control DMSO). The AUC values for apoptosis curves were calculated by performing area under curve analysis on GraphPad Prism 7.03. The area under the dose-response curve (AUC) was calculated since it integrates potency and efficacy of the drugs to represent apoptosis into a single parameter. The IC50 values for Compound 2 and pomalidomide in the flow cytometry assays are presented Table 9.
(§2) The apoptosis induction effect of Compound 2 was assessed using flow cytometry after 120 h of treatment and compared with pomalidomide treatment. […] Each data point represents 2 independent experiments with at least two samples in each experiment. (Table 10).
(In general: Flow cytometry measures light scatter and fluorescence of single cells or particles in a stream.)

Assay [4] relates to RPMI-8226. The description is as above. The format is cell-based, human. The note with it: for pIC50: Homo sapiens, read-out: Antiproliferative Activity (Flow Cytometry) IC50; for induced apoptosis AUC (area under the dose response curve): scale 0-10000. The method, then:
as §1, §2

The test system of assay [5] is OPM2-P10. The assay is described as above. The format is cell-based, human. The note with it: for pIC50: Homo sapiens, read-out: Antiproliferative Activity (Flow Cytometry) IC50; for induced apoptosis AUC (area under the dose response curve): scale 0-10000. The method, then: as §1, §2
Assay [6] concerns KMS-11. The description is as above. The class given is cell-based, human. The settings on record: for pIC50: Homo sapiens, read-out: Antiproliferative Activity (Flow Cytometry) IC50; for induced apoptosis AUC (area under the dose response curve): scale 0-10000. The method, then:
as §1, §2

Assay [7] concerns EJM. The assay is described as above. The class given is cell-based, human. The settings on record: for pIC50: Homo sapiens, read-out: Antiproliferative Activity (Flow Cytometry) IC50; for induced apoptosis AUC (area under the dose response curve): scale 0-10000. The method, then:
as §1, §2

Assay [8] relates to NCI-H929-1051. The assay is described as above. The class given is cell-based, human. The note with it: for induced apoptosis AUC (area under the dose response curve): H929-1051, scale 0-10000; for pIC50: Homo sapiens, NCI-H929-1051, read-out: Antiproliferative Activity (Flow Cytometry) IC50. The method, then: as §1, §2
Where [9] appears, read: CTG, read-out: NCI-H929.1051 120 h IC50.
Setting [10] is: read-out: 0.01 μM Dex Combo IC50, H929-1051, Day 5, in combination with 0.01 μM dexamethasone.
[11] abbreviates: read-out: 0.1 μM Dex Combo IC50, H929-1051, Day 5, in combination with 0.1 μM dexamethasone.
[12] abbreviates: read-out: 1 μM Dex Combo IC50, H929-1051, Day 5, in combination with 1 μM dexamethasone.
Where [13] appears, read: H929-1051, Day 5 Cell Titer-Glo, single agent, read-out: Single Agent IC50.

With `N#Cc1ccc(N2CCN(Cc3ccc(COc4cccc5c4CN(C4CCC(=O)NC4=O)C5=O)cc3)CC2)c(F)c1` (racemic) [Compound 1, 4-(4-(4-(((2-(2,6-dioxopiperidin-3-yl)-1-oxoisoindolin-4-yl)oxy)methyl)benzyl)piperazin-1-yl)-3-fluorobenzonitrile], in assay [1], the pIC50 was 5.13 and the inhibition at 10 µM was 55%. The negative-log IC50 (pIC50) in assay [2] (setting [9]) is 8.60.
`Nc1cccc2c1C(=O)N(C1CCC(=O)NC1=O)C2=O` (stereo not shown) [Pomalidomide, pomalidomide]: the pIC50 in assay [3] was below 5.00; in assay [4] it was below 5.00; in assay [5], below 5.00; in assay [6], 5.28; in assay [7], 5.55; in assay [8], 5.71. The negative logarithm of the IC50 (pIC50) in assay [2] (setting [10]) was 5.42; in assay [2] (setting [11]), 6.93; in assay [2] (setting [12]), 7.72; in assay [2] (setting [13]), below 5.00. Moreover, the “induced apoptosis AUC (area under the dose response curve)” value is 28.16 in assay [3]; 1369 in assay [4]; 108.7 in assay [5]; 234.4 in assay [6]; 900 in assay [7]; 423 in assay [8].
Take `O=C1CC[C@H](N2Cc3c(OCc4ccc(CN5CCN(c6ccc(F)cc6F)CC5)cc4)cccc3C2=O)C(=O)N1` [Compound B]: the “Dopamine D2S % Inhibition (10 μM)” value in assay [1] (10 μM) was 99, % and 99^a %.
Regarding `N#Cc1ccc(N2CCN(Cc3ccc(COc4cccc5c4CN([C@H]4CCC(=O)NC4=O)C5=O)cc3)CC2)c(F)c1` [Compound 2, (S)-4-(4-(4-(((2-(2,6-dioxopiperidin-3-yl)-1-oxoisoindolin-4-yl)oxy)methyl)benzyl)piperazin-1-yl)-3-fluorobenzonitrile], the pIC50 in assay [3] is below 5.00; in assay [4], 9.12; in assay [5], 8.74; in assay [6] it was 8.85; in assay [7] it was 9.37; in assay [8], 9.35. Moreover, the pIC50 was around 5.70 in assay [1]; 9.39 in assay [2] (setting [10]); 10.37 in assay [2] (setting [11]); 10.74 in assay [2] (setting [12]); 9.01 in assay [2] (setting [13]); 9.00 in assay [2] (setting [9]). Also, the “induced apoptosis AUC (area under the dose response curve)” value is reported as 709 in assay [3]; 3245 in assay [4]; 1768 in assay [5]; 1270 in assay [6]; 2591 in assay [7]; 3968 in assay [8]. Besides, in assay [1], the inhibition at 10 µM was 52%. Further, in assay [2] (H929-1051), the “potency of single agent versus pomalidomide-dexamethasone combination” value is reported as 10 fold.
